According to US11622991B2, “Protocol for treatment of lupus nephritis” (Aurinia Pharmaceuticals Inc., priority 2017, dated 2023):
Read-outs that look alike come from different tables or passages of the source.

Key:
lupus nephritis [1] = assay: Low dosage protocol (15.8 mg or 7.9 mg BID); type: in vivo, human
lupus nephritis [2] = assay: Probability of attaining CR by proteinuria depending on UPCR reduction of 25% at 8 weeks (Tables 9a, 9b); type: in vivo, human
lupus nephritis [3] = assay: Predictability of week 48 partial remission from early C3 normalization (Table 10); type: in vivo, human
Source text: (§1) PR is defined as at least 50% reduction in proteinuria (i.e. UPCR).
(§2) Sensitivity is defined as the probability that a subject showing PR at 48 weeks would have shown a favorable result with regard to the marker at the designated early time point. In the tables below, this is the ratio of the number of subjects with favorable marker results (early drop or normalization) to the total subjects with 48 week PR.
(§3) Specificity is defined as the probability that a subject not showing PR at 48 weeks would have shown an unfavorable result with regard to the marker at the designated early time point. In the tables below, this is the ratio of the number of subjects with unfavorable marker results (no early drop or no normalization) to the total subjects with no 48 week PR.
(§4) Positive predictive value is defined as the probability that a subject showing a favorable result with respect to the marker at an earlier time point would show PR at 48 weeks. In the tables below, this is the ratio of the number of subjects with favorable marker results who have 48 week PR to those with favorable marker results (early reduction or yes column).
(§5) Negative predictive value is defined as the probability that a subject showing an unfavorable result with respect to the marker at an earlier time point would not show PR at 48 weeks. In the tables below, this is the ratio of the number of subjects with unfavorable marker results who have no PR at 48 weeks to the total subjects with unfavorable marker results (no early reduction or no column).
(§6) Another criterion for effectiveness is normalization of C3 and/or C4 concentration in blood. The normal concentration of C3 is 90 mg/dl or greater and for C4 16 mg/dl or greater.

lupus nephritis [4] = details: cited from earlier work
lupus nephritis [5] = assay: Predictability of week 48 partial remission from early C4 normalization (Table 11); type: in vivo, human
Source text: as §1, §2, §3, §4, §5, §6

C=C/C=C/C[C@@H](C)[C@@H](O)[C@H]1C(=O)N[C@@H](CC)C(=O)N(C)CC(=O)N(C)[C@@H](CC(C)C)C(=O)N[C@@H](C(C)C)C(=O)N(C)[C@@H](CC(C)C)C(=O)N[C@@H](C)C(=O)N[C@H](C)C(=O)N(C)[C@@H](CC(C)C)C(=O)N(C)[C@@H](CC(C)C)C(=O)N(C)[C@@H](C(C)C)C(=O)N1C [voclosporin]
remission at reduced dosage (lupus nephritis [1]; dosage lowered to 7.9 mg BID quite early in the treatment): Substantial numbers of subjects showed complete or partial remission | remission at reduced dosage (lupus nephritis [1]; dosage reduced almost immediately to 15.8 mg BID): a substantial portion of subjects showed substantial remission | # of patients without UPCR reduction of ≥25% at 8 weeks (lupus nephritis [2]; High Dose (39.5 mg BID)): 12 | # of CRs by Proteinuria at 24 weeks (lupus nephritis [2]; Low Dose (23.7 mg BID)): 29 | # of patients with UPCR reduction of ≥25% at 8 weeks (lupus nephritis [2]; Low Dose (23.7 mg BID)): 64 | # of patients without UPCR reduction of ≥25% at 8 weeks (lupus nephritis [2]; Low Dose (23.7 mg BID)): 16 | No Week 48 Partial Remission No Normalization (lupus nephritis [3]; week 12, 23.7 mg BID): 10 | No Week 48 Partial Remission Normalization (lupus nephritis [3]; week 12, 23.7 mg BID): 8 | Normalization Yes (lupus nephritis [3]; week 12, 23.7 mg BID): 31 | No Week 48 Partial Remission No Normalization (lupus nephritis [3]; week 12, 39.5 mg BID): 10 | No Week 48 Partial Remission Normalization (lupus nephritis [3]; week 12, 39.5 mg BID): 7 | No Week 48 Partial Remission No Normalization (lupus nephritis [3]; week 24, 23.7 mg BID): 8 | Normalization Yes (lupus nephritis [3]; week 24, 23.7 mg BID): 30 | Week 48 Partial Remission No Normalization (lupus nephritis [3]; week 24, 23.7 mg BID): 33 | No Week 48 Partial Remission No Normalization (lupus nephritis [3]; week 48, 23.7 mg BID): 8 | No Week 48 Partial Remission Normalization (lupus nephritis [3]; week 48, 23.7 mg BID): 2 | Normalization Yes (lupus nephritis [3]; week 48, 23.7 mg BID): 27 | No Week 48 Partial Remission No Normalization (lupus nephritis [3]; week 48, 39.5 mg BID): 9 | No Week 48 Partial Remission Normalization (lupus nephritis [3]; week 48, 39.5 mg BID): 7 | remission (lupus nephritis [4]; 23.7 mg or 39.5 mg twice daily with MMF and reducing corticosteroid, 24 weeks and 48 weeks): successful complete or partial remission in a large number of patients | remission (lupus nephritis [4]; 23.7 mg twice daily with MMF and reducing corticosteroid dose, 24 weeks): complete remission or partial remission in a large percentage of subjects | No Week 48 Partial Remission No Normalization (lupus nephritis [5]; week 12, 23.7 mg BID): 8 | No Week 48 Partial Remission Normalization (lupus nephritis [5]; week 12, 23.7 mg BID): 10 | No Week 48 Partial Remission No Normalization (lupus nephritis [5]; week 12, 39.5 mg BID): 9 | No Week 48 Partial Remission Normalization (lupus nephritis [5]; week 12, 39.5 mg BID): 8 | Normalization No (lupus nephritis [5]; week 12, 39.5 mg BID): 31 | Normalization Yes (lupus nephritis [5]; week 12, 39.5 mg BID): 48 | No Week 48 Partial Remission Normalization (lupus nephritis [5]; week 24, 23.7 mg BID): 8 | Normalization No (lupus nephritis [5]; week 24, 23.7 mg BID): 31 | Week 48 Partial Remission Normalization (lupus nephritis [5]; week 24, 23.7 mg BID): 32 | Normalization No (lupus nephritis [5]; week 48, 23.7 mg BID): 31 | Week 48 Partial Remission Normalization (lupus nephritis [5]; week 48, 23.7 mg BID): 29 | No Week 48 Partial Remission No Normalization (lupus nephritis [5]; week 48, 39.5 mg BID): 11
